Data published in patent US9296778B2, “3′,5′-cyclic phosphate prodrugs for HCV infection” (Idenix Pharmaceuticals, Inc., priority 2012, dated 2016).
pEC50: −log10 of the molar value. Read-outs that look alike come from different tables or passages of the source.

Key:
[1] = Stability in simulated intestinal fluid; assay type: in vitro ADME; conditions: 100 μM, 2 hours at 37° C., percent of the peak area at time zero
Procedure: (§1) Simulated gastric and intestinal fluids containing pepsin and pancreatin respectively were prepared according to the U.S. Pharmacopoeia USP291 procedure (www.pharmacopeia.cn/v29240/usp29nf24s0_ris1s126.html). Compounds (final concentration 100 μM) were incubated in duplicate in the appropriate fluid for 2 hours at 37° C. The samples were quenched with 200 μl cold acetonitrile, vortexed for 30 seconds and then centrifuged at 16,100 g for 10 min. The supernatants were analyzed by HPLC on a C-18 column with UV detection at 252 nm. The time 0 samples were prepared by adding SGF or SIF fluid to the quenching solvent followed by the test compound. Stability of the compounds was determined by peak area of the test compounds after incubation and calculated as percent of the peak area observed at time zero.

Stability in mouse blood = assay type: in vitro ADME; conditions: on ice, percent unchanged test compound
Procedure: (§2) Stability of compounds were determined in fresh human whole blood with K2EDTA as the anticoagulant (stored refrigerated at 2-8° C. and used within 7 days of receipt). The experiment was conducted with three replicates for each time point. Whole blood, pre-incubated at 37° C. for 10-15 minutes, was fortified with a solution of test compound for a final concentration of 0.5 μM and mixed for 30 sec. At intervals (0, 0.5, 1 and 2 hr), three 50 μL aliquots were combined with 200 μL (each) of an ice-cold solution of the internal standard (carbutamide 500 ng/mL in acetonitrile). The samples were vortexed for 30 sec and then centrifuged at 16,100 g for 5 min. The supernatant was analyzed by LC-MS/MS. The MS peak area ratio of the test compounds versus the internal standard was calculated and percent unchanged test compound was calculated for each time point using this ratio.
The stability in mouse blood was determined on ice at 0, 0.5 and 1 hr as herein.

[2] = Liver pharmacokinetics following a single oral dose in CD-1 mice; assay type: in vivo; conditions: single oral dose 25 mg/kg in PEG 200, CD-1 male mice; given at 1 μmol/kg; 25 mg/kg
Procedure: (§3) A single oral dose of test compound at 25 mg/kg in PEG 200 (dose volume 5 mL/kg) was administered to nine CD-1 male mice. Five untreated animals were used for the collection of control plasma and liver. Terminal plasma and liver samples were collected from three animals per time point at 4, 12 and 24 hours post dose. Liver specimens were collected from all animals immediately after the incision. Freezing forceps stored in liquid nitrogen were used to freeze the liver before excision.
Liver samples were analyzed for the active species 2′-methylguanosine triphosphate (2′-MeGTP) by LC-MS/MS. 2′-MeGTP levels were assayed by homogenizing (on ice) a known weight of mouse liver with 4× volume of 0.95 M trichloroacetic acid (TCA). Internal standard solution was added to the homogenate followed by neutralization with 20% ammonium hydroxide solution and addition of 500 μL 1% formic acid. The tissue samples were extracted by weak anion exchange solid phase extraction (SPE). Post extraction, the eluates were evaporated under nitrogen, followed by reconstitution before injection onto the LC-MS/MS system. The samples were chromatographed on a Luna NH2 column using a gradient system of ammonium acetate (1 mM to 20 mM and pH 8.0 to pH 10.0) in water and acetonitrile (70:30). The analyte was detected and quantified by tandem mass spectrometry in positive ion mode on an API4000 equipped with a Turbo Ionspray® interface. The calibration range was 10 to 10000 pmol/mL in mouse liver homogenate (50 to 50000 pmol/g of mouse liver).

HCV genotype 1b replicon = experiment: HCV Replicon Assay; assay type: cell-based; conditions: Zluc cells (Huh-7-derived, HCV genotype 1b replicon, luciferase reporter), 72 hours, read-out: HCV Replicon EC50
Procedure: Huh-7-derived cell line (Zluc) that harbors an HCV genotype 1b replicon and a luciferase reporter gene was grown in Dulbecco's Modified Eagle Medium (DMEM) supplemented with 10% fetal bovine serum, 2 mM GlutaMAX, 1% MEM nonessential amino acids, 100 IU/mL penicillin, 100 μg/mL streptomycin, and 0.5 mg/mL Geneticin® (G418). For dose response testing the cells were seeded in 96-well plates at 7.5×10^3 cells per well in a volume of 50 μL, and incubated at 37° C./5% CO2. Drug solutions were made up freshly in Huh-7 media as 2× stocks. Ten additional 5-fold dilutions were prepared from these stocks in DMEM without G418. At least three hours after Zluc cells were seeded, drug treatment was initiated by adding 50 μL of drug dilutions to the plates in duplicate. Final concentrations of drug ranged from 100 μM to […]. Cells were then incubated at 37° C./5% CO2. Alternatively, compounds were tested at two concentrations (1 μM and 10 μM). […] For this, media was removed from the plates via gentle tapping. Fifty microliters of ONE-glo luciferase assay reagent was added to each well. The plates were shaken gently for 3 min at room temperature and luminescence was measured on a Victor^3 V 1420 multilabel counter (Perkin Elmer) with a 1 second read time using a 700 nm cut-off filter. The EC50 values were calculated from dose response curves from the resulting best-fit equations determined by Microsoft Excel and XLfit 4.1 software. When screening at two fixed concentrations, the results were expressed as % inhibition at 1 μM and 10 μM.

[3] = Plasma pharmacokinetics following a single oral dose in CD-1 mice; assay type: in vivo; conditions: single oral dose 25 mg/kg in PEG 200, CD-1 male mice; given at 1 μmol/kg; 25 mg/kg
Procedure: as §3
Plasma samples were analyzed for 2′-methylguanosine (2′-MeG) by LC-MS/MS. The internal standard (IS) was 2′-MeG-D3. For protein precipitation and extraction, each plasma sample (50 μL) was treated with 500 μL of 0.2% formic acid in acetonitrile and 20 μL of the internal standard working solution. After vortexing and centrifugation, 500 μL of the sample extracts were transferred to a new plate, dried under N2 at ˜28° C. and reconstituted with 75 μL of 0.2% FA in water. The extracts were chromatographed on an Aquasil C18 column using a gradient system of 0.2% formic acid in water and acetonitrile. The analytes were detected and quantified by tandem mass spectrometry in positive ion mode on an MDS Sciex API5000 equipped with a Turbo Ionspray® interface. The calibration range was 0.500 (LLOQ) to 200 ng/mL in mouse plasma.

[4] = Stability in fresh human whole blood; assay type: in vitro ADME; conditions: 0.5 μM, percent unchanged test compound
Procedure: as §2

in vitro = conditions: human, HCV Replicon CC50, Zluc cells, CellTiter-Blue
fresh human hepatocytes = experiment: Release of active metabolite in fresh human hepatocytes; assay type: in vitro ADME; conditions: 10 μM compound; for FHH TP Cmax: fresh human hepatocytes; for FHH TP AUC: fresh human hepatocytes, 6, 24 and 48 hours
Procedure: (§4) Plates of fresh human and mouse hepatocytes were obtained on ice. The medium was removed and replaced with hepatocyte culture medium (William's E supplemented with penicillin-streptomycin, 1% L-glutamine, 1% insulin-transferrin-selenium and 0.1 μM Dexamethasone (Invitrogen) or with Invitro GRO HI medium complemented with Torpedo antibiotics (Celsis)). Cells were left overnight in an incubator at 37° C. to acclimatize to culture and the medium.
(§5) Hepatocyte incubations were conducted at a final volume of 0.5 mL hepatocyte culture medium/well (0.8 million cells/well for human and 0.5 million cells/well for mouse; 12 well plate no overlay, collagen coat). Culture medium from overnight incubation of cells was removed and replaced with fresh medium, pre-warmed to 37° C., containing 10 μM of test compound from a stock solution in DMSO (final DMSO concentration was 0.1%). At each specific time point, incubation medium was removed and cell monolayers were carefully washed two times with ice-cold PBS. Following the last wash, all PBS was carefully removed and 1.0 mL of extraction solution (ice-cold 70% methanol/30% water) added. Cells were scraped off and suspended in the extraction solution, transferred to 2 mL polypropylene microfuge tubes and intracellular contents extracted overnight at −20° C.
(§6) After the overnight treatment the cellular extracts were prepared by centrifugation at 16,000×g for 10 min to remove cellular debris. The remaining sample was then dried using a refrigerated centrivap concentrator. Dry extracts were reconstituted in 1000 μL of HPLC-grade water and centrifuged at 16,000×g for 10 min. Aliquots (100 μL each) of the supernatant were transferred into a 96 well plate and internal standard (4 ng/mL final concentration) was added as the internal standard (IS) for LC-MS/MS analysis.
(§7) The incubation time points were 6, 24 and 48 hours for human hepatocytes and 1, 4, 8, 12 and 24 hours for mouse hepatocytes.

mouse hepatocytes = experiment: Release of active metabolite in mouse hepatocytes; assay type: in vitro ADME; conditions: 10 μM compound; for MsH Cmax: mouse hepatocytes; for MsH AUC: mouse hepatocytes, 1, 4, 8, 12 and 24 hours
Procedure: as §4, §5, §6, §7

Zluc cells = experiment: cytotoxicity evaluation (CellTiter-Blue Cell Viability Assay); conditions: read-out: HCV Replicon CC50; Zluc cells, CellTiter-Blue
[5] = Stability in simulated gastric fluid; assay type: in vitro ADME; conditions: 100 μM, 2 hours at 37° C., percent of the peak area at time zero
Procedure: as §1

SMILES | Stability SIF [1] | Stability WB_Mouse (ice; 1 hr) (Stability in mouse blood) | Ms Liver 2′-MeGTP AUC [2] | pEC50 (HCV genotype 1b replicon; Hepatitis C virus, 72 h) | Ms Plasma 2′-MeG AUC [3] | Ms Plasma 2′-MeG Cmax [3] | Stability WB_Human (37° C.; 2 hr) [4] | CC50 (in vitro) | FHH TP Cmax (fresh human hepatocytes) | FHH TP AUC (fresh human hepatocytes) | pEC50 (HCV genotype 1b replicon) | MsH Cmax (mouse hepatocytes) | MsH AUC (mouse hepatocytes) | CC50 (Zluc cells) | Stability SGF [5]
CCOc1nc(N)nc2c1ncn2[C@@H]1O[C@@H]2COP(=O)(OCCCC(=O)OC(C)C)O[C@H]2[C@@]1(C)O (single isomer, unassigned) [Compound 1 Diastereomer 1] | 105% | 79% | 560 pmol · hr/g at 1 μmol/kg | 6.00 to 6.60 | 9 pmol · hr/mL at 1 μmol/kg | 0.56 pmol/mL at 1 μmol/kg | 73% | > 50 µM | 85 pmol/mill cells | 3425 pmol · hr/mill cells | – | – | – | – | –
CCOc1nc(N)nc2c1ncn2[C@@H]1O[C@@H]2COP(=O)(OCCCC(=O)OC(C)C)O[C@H]2[C@@]1(C)O (single isomer, unassigned) [Compound 1 Diastereomer 2] | 83% | 1% | 7400 pmol · hr/g at 1 μmol/kg | – | 68 pmol · hr/mL at 1 μmol/kg | 8.6 pmol/mL at 1 μmol/kg | 87% | – | 278 pmol/mill cells | 10125 pmol · hr/mill cells | > 6.60 | 330 pmol/mill cells | 8363 pmol · hr/mill cells | < 50 µM | –
CCOc1nc(N)nc2c1ncn2[C@@H]1O[C@@H]2COP(=O)(OCCSC(=O)C(C)(C)CO)O[C@H]2[C@@]1(C)O (single isomer, unassigned) [Compound 4 Diastereomer 1] | 105% | – | 480 pmol · hr/g at 1 μmol/kg | > 6.60 | 6.7 pmol · hr/mL at 1 μmol/kg | 0.5 pmol/mL at 1 μmol/kg | 82% | < 50 µM | 120 pmol/mill cells | 4110 pmol · hr/mill cells | – | 468 pmol/mill cells | 15078 pmol · hr/mill cells | – | –
CCOc1nc(N)nc2c1ncn2[C@@H]1O[C@@H]2COP(=O)(OCCSC(=O)C(C)(C)CO)O[C@H]2[C@@]1(C)O (single isomer, unassigned) [Compound 4 Diastereomer 2] | 77% | 105% | 1100 pmol · hr/g at 1 μmol/kg | – | 24 pmol · hr/mL at 1 μmol/kg | 1.7 pmol/mL at 1 μmol/kg | 59% | – | 681 pmol/mill cells | 24086 pmol · hr/mill cells | > 6.60 | 386 pmol/mill cells | 13328 pmol · hr/mill cells | < 50 µM | –
CCOc1nc(N)nc2c1ncn2[C@@H]1O[C@@H]2COP(=O)(OCCSC(=O)C(C)(C)CO)O[C@H]2[C@@]1(C)F (single isomer, unassigned) [Compound 5 Diastereomer 2] | 77% | 93% | 2600 pmol · hr/g at 1 μmol/kg | – | 220 pmol · hr/mL at 1 μmol/kg | 23 pmol/mL at 1 μmol/kg | 46% | – | 448 pmol/mill cells | 9694 pmol · hr/mill cells | > 6.60 | 302 pmol/mill cells | 8713 pmol · hr/mill cells | > 50 µM | –
CCOc1nc(N)nc2c1ncn2[C@@H]1O[C@@H]2COP(=O)(OCCSSC(C)(C)C)O[C@H]2[C@@]1(C)F (single isomer, unassigned) [Compound 24 Diastereomer 2] | 47% | – | – | – | – | – | 73% | – | 105 pmol/mill cells | 3031 pmol · hr/mill cells | > 6.60 | – | – | < 50 µM | 30%
CCOc1nc(N)nc2c1ncn2[C@@H]1O[C@@H]2COP(=O)(OC[C@H](C)NC(=O)OC)O[C@H]2[C@@]1(C)F (single isomer, unassigned; diastereomer 2) [Compound 9 Diastereomer 2] | 105% | – | – | – | – | – | 85% | – | BLD^a | BLD^a | > 6.60 | – | – | > 50 µM | 85%
